Consider eleven compounds from patent US9233927B2 (TEVA PHARMACEUTICAL INDUSTRIES, LTD., priority 2013, dated 2016).

For data set [1] the following is noted: prior art U.S. Pat. No. 7,884,208; cited from earlier work.
The conditions of data set [2]: prior art U.S. Pat. No. 7,884,208, cited from earlier work.
Data set [3] is described as follows: Particle size distribution by Malvern laser diffraction (Mastersizer S). Format: physicochemical. Conditions: for D(0.9), PSD by Malvern / d(0.1), PSD by Malvern / d(0.5), PSD by Malvern: Modified Pilot Scale, 2.5 kg batch. On the procedure:
The particle size distributions were measured by Malvern Laser Diffraction, using the Mastersizer S model. Laser diffraction relies on the fact that diffraction angle of light is inversely proportional to particle size. Properties of particles are measured and interpreted as measurements of a sphere (a sphere being the only shape that can be described by one unique number). In addition, laser diffraction calculates a particle size distribution based around volume terms, thus eliminating particle count from the determination of particle size. The Mastersizer S model measures particles using a single technique and a single range setting.
D(0.1) is the particle size, in microns, below which 10% by volume distribution of the population is found. D(0.5) is the particle size, in microns, below which 50% by volume distribution of the population is found. D(0.9) is the particle size, in microns, below which 90% by volume distribution of the population is found.

In data set [4] the test system is acute experimental autoimmune encephalomyelitis (aEAE) model. Conditions: U.S. Pat. No. 6,077,851; cited from earlier work.
The mark [5] stands for this setting: Laboratory scale crystallization, 25 g crude.
[6] abbreviates: Production scale crystallization.
The mark [7] stands for this setting: starting material of pilot scale process.

Where two headings read alike, the source gives them in different places.

On to `CCN(C(=O)c1c([O-])c2c(Cl)cccc2n(C)c1=O)c1ccccc1.[Na+]` [Example 14 of U.S. Pat. No. 7,884,208], for which the “Tapped Density (in words)” value in data set [1] was “undesired”. The “size of 10% or more of the total amount by volume of the particles” value in data set [2] was “less than 5 microns”.
For `CCN(C(=O)c1c([O-])c2c(Cl)cccc2n(C)c1=O)c1ccccc1.[Na+]` [Pilot Scale Batch A], in data set [3], the “D(0.9), PSD by Malvern” value is listed as 33.8 um; the “d(0.1), PSD by Malvern” value was 3.3 um; the “d(0.5), PSD by Malvern” value is 12.9 um.
With `CCN(C(=O)c1c([O-])c2c(Cl)cccc2n(C)c1=O)c1ccccc1.[Na+]` [Laboratory Scale Batch A], in data set [3] (setting [5]), the “PSD D(0.1)” value was 2.3 μm.
For `CCN(C(=O)c1c([O-])c2c(Cl)cccc2n(C)c1=O)c1ccccc1.[Na+]` [Batch C], in data set [3] (setting [6]), the “PSD D(0.1)” value is 4.1 μm, the “PSD D(0.5)” value amounted to 14.0 μm and the “PSD D(0.9)” value was 32.0 μm.
Take `CCN(C(=O)c1c([O-])c2c(Cl)cccc2n(C)c1=O)c1ccccc1.[Na+]` [Laboratory Scale Batch B]: the “PSD D(0.1)” value in data set [3] (setting [5]) is on record as 2.6 μm.
Take `CCN(C(=O)c1c([O-])c2c(Cl)cccc2n(C)c1=O)c1ccccc1.[Na+]` [Example 15 from U.S. Pat. No. 7,884,208]: in data set [2] (Laboratory Scale 25 g batch), the “D(0.9), PSD by Malvern” value was 51.8 um; the “d(0.1), PSD by Malvern” value is given as 6.1 um; the “d(0.5), PSD by Malvern” value is listed as 21.2 um.
On to `CCN(C(=O)c1c(O)c2c(Cl)cccc2n(C)c1=O)c1ccccc1` [Laquinimod, N-ethyl-N-phenyl-1,2,-dihydro-4-hydroxy-5-chloro-1-methyl-2-oxoquinoline-3-carboxamide], for which the “effectiveness in aEAE model” value in data set [4] was “effective”.
For `CCN(C(=O)c1c([O-])c2c(Cl)cccc2n(C)c1=O)c1ccccc1.[Na+]` [Pilot Scale Batch B], in data set [3], the “D(0.9), PSD by Malvern” value amounted to 33.9 um; the “d(0.1), PSD by Malvern” value is listed as 4.1 um; the “d(0.5), PSD by Malvern” value came out at 13.5 um.
Consider `CCN(C(=O)c1c([O-])c2c(Cl)cccc2n(C)c1=O)c1ccccc1.[Na+]` [Example 13 of U.S. Pat. No. 7,884,208], for which the “Tapped Density (in words)” value in data set [1] is reported as “high”.
As for `CCN(C(=O)c1c([O-])c2c(Cl)cccc2n(C)c1=O)c1ccccc1.[Na+]` [crude laquinimod sodium], in data set [3] (setting [7]), the “d(0.1)” value is listed as 1-2 μ, the “d(0.5)” value is given as 5-11 μ and the “d(0.9)” value was 20-35 μ.
As for `CCN(C(=O)c1c([O-])c2c(Cl)cccc2n(C)c1=O)c1ccccc1.[Na+]` [Batch E], in data set [3] (setting [6]), the “PSD D(0.1)” value came to 2.5 μm, the “PSD D(0.5)” value was 9.5 μm and the “PSD D(0.9)” value is recorded as 21.0 μm.
